From patent US8722910B2, “Diyne compositions” (Evolva AG, priority 2009, dated 2014)
≈ marks a conversion by molar mass, not a printed value.

Tests used:
[1] = system: C. glabrata, Fluconazole, Voriconazole, Itraconazole and/or Caspofungin resistant isolates; assay: Susceptibility of resistant clinical isolates (MIC, broth dilution); type: cell-based; conditions: for MIC90: Nakaseomyces glabratus
Protocol: The efficacy of compound IV″ was investigated on 563 clinical isolates of 33 human fungal pathogens. […] For species with n≧10, the MIC90 (MIC, minimal inhibitory concentration) is given as ng/ml. For species with n≦10, the MIC range is given as ng/ml. 24 h and 48 h reads are indicated (Table 1).
The MIC90 was calculated for the indicated species.

[2] = system: C. albicans, Fluconazole, Voriconazole, Itraconazole and/or Caspofungin resistant isolates; assay: as above; type: cell-based; conditions: for MIC90: Candida albicans

SMILES | MIC90 [1] | MIC90/MIC range 48 h ([1]; resistant C. glabrata isolates (n = 21), MIC90, 48 h) | MIC90 [2] | MIC90/MIC range 48 h ([2]; resistant C. albicans isolates (n = 20), MIC90, 48 h)
O=C([O-])CCCCCCC/C=C\C#CC#Cc1ccco1.[K+] [Compound IV″, potassium (Z)-14-(furan-2-yl)tetradeca-9-en-11,13-diynoate] | 0.02 µg/mL | 0.02 µg/mL | 0.0025 µg/mL | 0.0025 µg/mL
C[C@@H](c1ncncc1F)[C@](O)(Cn1cncn1)c1ccc(F)cc1F [Voriconazole] | 0.5 µg/mL (≈ 1.43 µM) | – | > 0.5 µg/mL | –
